Data set [1] concerns the target T1, Sortilin (Homo sapiens, UniProt Q99523).
T1 construct: purchased Bio-Techne Ltd 3154-ST-050
T1 sequence (Q99523 78-755 limits assumed): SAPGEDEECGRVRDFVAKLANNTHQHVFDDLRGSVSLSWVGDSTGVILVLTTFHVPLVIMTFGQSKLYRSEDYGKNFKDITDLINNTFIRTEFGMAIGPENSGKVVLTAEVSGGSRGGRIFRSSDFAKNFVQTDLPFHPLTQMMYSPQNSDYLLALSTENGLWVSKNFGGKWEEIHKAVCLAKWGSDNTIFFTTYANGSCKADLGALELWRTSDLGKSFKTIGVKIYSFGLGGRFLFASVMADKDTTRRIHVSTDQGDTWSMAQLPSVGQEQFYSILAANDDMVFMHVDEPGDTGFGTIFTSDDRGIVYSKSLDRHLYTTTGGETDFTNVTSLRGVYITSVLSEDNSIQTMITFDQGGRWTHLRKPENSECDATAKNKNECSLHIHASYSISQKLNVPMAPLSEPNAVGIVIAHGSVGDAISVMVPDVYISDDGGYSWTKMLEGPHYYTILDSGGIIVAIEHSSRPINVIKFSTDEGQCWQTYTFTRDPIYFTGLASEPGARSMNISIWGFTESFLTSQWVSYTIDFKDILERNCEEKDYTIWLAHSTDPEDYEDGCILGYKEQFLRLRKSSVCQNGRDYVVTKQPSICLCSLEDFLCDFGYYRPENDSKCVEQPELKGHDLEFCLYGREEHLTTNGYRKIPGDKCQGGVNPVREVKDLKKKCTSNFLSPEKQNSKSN
Description: Creoptix (GCI) binding kinetics, human Sortilin. To be noted: Species Human, screened at 1 µM, 25 degrees Celsius. A digest of the protocol: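 Grating-coupled interferometry at 25 °C with amine-coupled recombinant human or mouse Sortilin, running buffer HBS-N pH 7.4, 3.4 mM EDTA, 1% DMSO. Compounds injected at 1 µM (1% DMSO) at 100 µl/min, 25 s association, 300 s dissociation; kon, koff and Kd from a 1:1 kinetic model.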

Data set [2] is described as follows: Plasma protein binding by rapid equilibrium dialysis, dog plasma. The class given is in vitro ADME. The protocol:
Plasma protein binding and brain homogenate binding for study compounds in mouse, dog, and rat by rapid equilibrium dialysis
In practice, unbound fractions in plasma and brain tissue were assessed using rapid equilibrium dialysis in vitro. Separately a pharmacokinetic study was run in vivo whereby a dose of the compound of interest was given at T=0 hours and at subsequent timepoints (eg 0.5, 1 and 4 hours) plasma and separately brain samples were analysed for total concentration of the compound of interest. These total concentrations could then be adjusted with the unbound fraction to give the unbound concentrations in the plasma and brain.
The test compounds were incubated in plasma and brain homogenate from the relevant species at 37 °C in RED device with inserts (8K MWCO, Thermo scientific) for 4 hours at 5 µM in triplicates. 350 µL of 150 mM phosphate buffered saline (PBS, pH 7.4) was used as the receiver side solutions. […] After 10-minute centrifugation at 13 200 rpm, the sample supernatants were analysed with an LC-MS/MS, to obtain the unbound fraction of the test compound (Fub). The unbound fraction was calculated from the peak area ratios obtained for each matrix: Fub = CPBS /Cplasma; [formula] where CPBS and Cplasma are the analyte concentrations in PBS (receiver) and plasma (donor), respectively. […]
In general terms: In equilibrium dialysis only unbound substance equilibrates across the membrane.

One may read the Kd as the concentration at which binding is half-saturated.

Turning to `C[C@@H](N[C@@H](CCC(C)(C)C)C(=O)O)c1ccc2c(c1)CCCO2` [Example 52], the Kd in data set [1] (Form of Compound Free acid) is 384 nM; in data set [1] (Form of Compound Mesylate salt) it was 133 nM.

Turning to `CC(C)(C)CC[C@H](NCc1ccc2c(c1)COCC2)C(=O)O` [Example 3, (S)-2-((isochroman-7-ylmethyl)amino)-5,5-dimethylhexanoic acid], the equilibrium dissociation constant (Kd) came out at 237 nM in data set [1] (Form of Compound Free acid) and 52 nM in data set [1] (Form of Compound Mesylate salt). Also, the “%Fuplasma” value in data set [2] (dog plasma, as used for the Kpuu calculation) is 55%. In data set [2] (pH 7.4, Dog plasma, 5 µM, 4 hours, 37 °C, read-out: Unbound (Fu, %)), the fraction unbound at 4 h, 5 µM came out at 0.555.

Take `C[C@H](N[C@@H](CCC(C)(C)C)C(=O)O)c1ccc2c(c1)CCCO2` [Example 50]: the values for the Kd in data set [1] (Form of Compound Free acid) and in data set [1] (Form of Compound Mesylate salt) were 120 nM and 221 nM, respectively.

Take `C[C@@H](N[C@@H](CCC(C)(C)C)C(=O)O)c1ccc2c(c1)OCCC2` [Example 9]: the Kd was 227 nM in data set [1] (Form of Compound Free acid) and 64.9 nM in data set [1] (Form of Compound Mesylate salt).

The record behind these values is EP4342530A1, “SORTILIN MODULATORS” (Insusense ApS, priority 2022, dated 2024).
